Assay results published in the kinase profiling compilation of Christmann-Franck et al. (2016).

How the values were obtained:
Assay in all cases: KINOMEscan competition binding
EPHA8 (human) = EPHA8 (human) (UniProt P29322)
MAP4K5 (human) = MAP4K5 (human) (UniProt Q9Y4K4)
FGFR3 (human) = FGFR3 (human) (UniProt P22607)
[1] = target: MET (human), P08581 [Y1235D]
CHEK2 (human) = CHEK2 (human) (UniProt O96017)
TAOK2 (human) = TAOK2 (human) (UniProt Q9UL54)
EPHB2 (human) = EPHB2 (human) (UniProt P29323)
[2] = target: PIK3CA (human), P42336 [H1047Y]
MAPK10 (human) = MAPK10 (human) (UniProt P53779)
DDR2 (human) = DDR2 (human) (UniProt Q16832)
MAP2K2 (human) = MAP2K2 (human) (UniProt P36507)
STK39 (human) = STK39 (human) (UniProt Q9UEW8)
NTRK2 (human) = NTRK2 (human) (UniProt Q16620)
NTRK2 (human), sequence (Q16620 whole entry, looked up): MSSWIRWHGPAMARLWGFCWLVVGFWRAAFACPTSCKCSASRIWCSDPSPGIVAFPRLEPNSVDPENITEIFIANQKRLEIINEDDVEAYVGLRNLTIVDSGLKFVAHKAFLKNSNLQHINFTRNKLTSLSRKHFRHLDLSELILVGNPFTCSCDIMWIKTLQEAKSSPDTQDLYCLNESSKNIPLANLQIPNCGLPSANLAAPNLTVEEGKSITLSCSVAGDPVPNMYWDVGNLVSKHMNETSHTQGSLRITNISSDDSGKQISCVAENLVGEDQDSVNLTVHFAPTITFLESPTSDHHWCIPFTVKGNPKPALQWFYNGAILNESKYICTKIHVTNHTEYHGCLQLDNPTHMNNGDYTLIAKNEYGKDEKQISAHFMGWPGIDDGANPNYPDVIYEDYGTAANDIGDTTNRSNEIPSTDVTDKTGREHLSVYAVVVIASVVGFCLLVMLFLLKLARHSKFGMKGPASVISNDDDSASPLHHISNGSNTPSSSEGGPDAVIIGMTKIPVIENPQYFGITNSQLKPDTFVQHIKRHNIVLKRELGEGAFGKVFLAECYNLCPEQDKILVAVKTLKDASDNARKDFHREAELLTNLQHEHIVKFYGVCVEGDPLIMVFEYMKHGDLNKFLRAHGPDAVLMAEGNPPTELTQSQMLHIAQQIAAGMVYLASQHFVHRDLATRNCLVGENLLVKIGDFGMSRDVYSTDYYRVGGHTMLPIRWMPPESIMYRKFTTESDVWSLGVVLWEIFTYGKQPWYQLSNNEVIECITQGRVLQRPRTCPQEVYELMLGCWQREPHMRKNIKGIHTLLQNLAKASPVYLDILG

CDK19 (human) = CDK19 (human) (UniProt Q9BWU1)
MKNK1 (human) = MKNK1 (human) (UniProt Q9BUB5)
MKNK1 (human), sequence (Q9BUB5 whole entry, looked up): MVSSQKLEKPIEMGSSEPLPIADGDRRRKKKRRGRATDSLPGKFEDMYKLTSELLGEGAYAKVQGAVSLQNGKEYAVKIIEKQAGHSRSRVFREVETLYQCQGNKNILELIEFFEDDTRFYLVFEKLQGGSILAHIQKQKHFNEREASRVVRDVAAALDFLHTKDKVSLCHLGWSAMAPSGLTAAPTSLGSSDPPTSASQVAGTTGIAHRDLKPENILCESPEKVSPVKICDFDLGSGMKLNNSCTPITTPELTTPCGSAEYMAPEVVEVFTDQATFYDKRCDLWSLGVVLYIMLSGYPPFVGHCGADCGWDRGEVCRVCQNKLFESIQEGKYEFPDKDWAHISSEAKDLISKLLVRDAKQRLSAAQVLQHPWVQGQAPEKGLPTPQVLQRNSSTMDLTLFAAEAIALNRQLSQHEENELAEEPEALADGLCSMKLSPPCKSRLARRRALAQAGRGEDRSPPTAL

MAP2K1 (human) = MAP2K1 (human) (UniProt Q02750)
TIE1 (human) = TIE1 (human) (UniProt P35590)
TESK1 (human) = TESK1 (human) (UniProt Q15569)
EIF2AK2 (human) = EIF2AK2 (human) (UniProt P19525)
NEK5 (human) = NEK5 (human) (UniProt Q6P3R8)
FES (human) = FES (human) (UniProt P07332)
FES (human), sequence (P07332 whole entry, looked up): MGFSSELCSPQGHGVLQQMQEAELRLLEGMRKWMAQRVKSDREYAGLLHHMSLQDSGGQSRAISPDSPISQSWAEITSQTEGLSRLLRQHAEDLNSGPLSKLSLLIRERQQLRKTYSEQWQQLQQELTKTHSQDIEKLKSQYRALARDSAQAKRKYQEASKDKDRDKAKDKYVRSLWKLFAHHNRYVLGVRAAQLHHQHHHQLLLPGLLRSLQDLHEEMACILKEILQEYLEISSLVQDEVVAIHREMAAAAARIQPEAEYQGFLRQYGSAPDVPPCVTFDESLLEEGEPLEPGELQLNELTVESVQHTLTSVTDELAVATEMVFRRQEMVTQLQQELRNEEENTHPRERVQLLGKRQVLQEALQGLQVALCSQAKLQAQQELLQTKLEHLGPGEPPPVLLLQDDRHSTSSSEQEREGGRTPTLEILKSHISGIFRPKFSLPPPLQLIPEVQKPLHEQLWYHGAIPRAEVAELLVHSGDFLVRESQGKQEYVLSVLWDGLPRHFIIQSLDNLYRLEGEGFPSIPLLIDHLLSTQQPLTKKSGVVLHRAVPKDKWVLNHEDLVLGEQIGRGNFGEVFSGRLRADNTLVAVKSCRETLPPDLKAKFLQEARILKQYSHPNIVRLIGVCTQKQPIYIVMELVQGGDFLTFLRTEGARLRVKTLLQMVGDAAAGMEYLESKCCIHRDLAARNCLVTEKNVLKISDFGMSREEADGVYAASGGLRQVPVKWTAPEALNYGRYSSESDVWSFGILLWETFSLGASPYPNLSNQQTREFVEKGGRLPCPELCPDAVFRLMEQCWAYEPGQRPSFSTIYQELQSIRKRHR

CAMKK1 (human) = CAMKK1 (human) (UniProt Q8N5S9)
CAMKK1 (human), sequence (Q8N5S9 whole entry, looked up): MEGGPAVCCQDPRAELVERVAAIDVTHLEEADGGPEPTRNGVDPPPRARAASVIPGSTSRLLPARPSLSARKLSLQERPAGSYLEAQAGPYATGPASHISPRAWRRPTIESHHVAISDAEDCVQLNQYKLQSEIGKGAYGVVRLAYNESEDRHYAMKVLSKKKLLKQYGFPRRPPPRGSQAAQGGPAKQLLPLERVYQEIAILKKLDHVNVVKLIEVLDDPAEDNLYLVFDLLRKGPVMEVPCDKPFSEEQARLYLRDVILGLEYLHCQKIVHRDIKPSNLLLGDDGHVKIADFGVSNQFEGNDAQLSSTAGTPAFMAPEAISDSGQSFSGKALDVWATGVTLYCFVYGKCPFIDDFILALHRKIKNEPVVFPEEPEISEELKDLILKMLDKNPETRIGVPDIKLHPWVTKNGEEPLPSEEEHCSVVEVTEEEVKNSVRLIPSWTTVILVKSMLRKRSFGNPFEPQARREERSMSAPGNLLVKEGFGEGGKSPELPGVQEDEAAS

PRKD3 (human) = PRKD3 (human) (UniProt O94806)
SRC (human) = SRC (human) (UniProt P12931)
PDGFRA (human) = PDGFRA (human) (UniProt P16234)
ROCK2 (human) = ROCK2 (human) (UniProt O75116)
SIK1 (human) = SIK1 (human) (UniProt P57059)
SIK1 (human), sequence (P57059 whole entry, looked up): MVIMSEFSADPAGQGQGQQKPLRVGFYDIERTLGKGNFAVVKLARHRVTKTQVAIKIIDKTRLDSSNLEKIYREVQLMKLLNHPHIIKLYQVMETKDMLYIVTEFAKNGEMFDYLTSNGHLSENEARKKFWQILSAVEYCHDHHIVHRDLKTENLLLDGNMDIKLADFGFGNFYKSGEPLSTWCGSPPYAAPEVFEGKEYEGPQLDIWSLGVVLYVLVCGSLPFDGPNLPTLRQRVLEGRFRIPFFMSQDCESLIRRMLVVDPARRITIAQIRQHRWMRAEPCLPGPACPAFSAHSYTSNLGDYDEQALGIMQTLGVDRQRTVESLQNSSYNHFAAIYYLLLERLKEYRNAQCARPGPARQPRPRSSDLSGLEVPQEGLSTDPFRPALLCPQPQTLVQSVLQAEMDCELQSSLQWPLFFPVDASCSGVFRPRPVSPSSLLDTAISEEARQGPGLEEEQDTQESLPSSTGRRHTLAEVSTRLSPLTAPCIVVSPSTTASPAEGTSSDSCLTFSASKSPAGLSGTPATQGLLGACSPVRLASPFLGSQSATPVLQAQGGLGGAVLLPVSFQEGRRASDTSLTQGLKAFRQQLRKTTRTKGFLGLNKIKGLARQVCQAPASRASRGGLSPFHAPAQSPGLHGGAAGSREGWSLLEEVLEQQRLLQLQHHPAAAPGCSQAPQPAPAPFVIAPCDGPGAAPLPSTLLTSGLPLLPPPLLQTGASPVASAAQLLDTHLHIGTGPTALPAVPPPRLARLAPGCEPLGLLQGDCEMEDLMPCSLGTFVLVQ

IRAK3 (human) = IRAK3 (human) (UniProt Q9Y616)
STK10 (human) = STK10 (human) (UniProt O94804)
STK10 (human), sequence (O94804 whole entry, looked up): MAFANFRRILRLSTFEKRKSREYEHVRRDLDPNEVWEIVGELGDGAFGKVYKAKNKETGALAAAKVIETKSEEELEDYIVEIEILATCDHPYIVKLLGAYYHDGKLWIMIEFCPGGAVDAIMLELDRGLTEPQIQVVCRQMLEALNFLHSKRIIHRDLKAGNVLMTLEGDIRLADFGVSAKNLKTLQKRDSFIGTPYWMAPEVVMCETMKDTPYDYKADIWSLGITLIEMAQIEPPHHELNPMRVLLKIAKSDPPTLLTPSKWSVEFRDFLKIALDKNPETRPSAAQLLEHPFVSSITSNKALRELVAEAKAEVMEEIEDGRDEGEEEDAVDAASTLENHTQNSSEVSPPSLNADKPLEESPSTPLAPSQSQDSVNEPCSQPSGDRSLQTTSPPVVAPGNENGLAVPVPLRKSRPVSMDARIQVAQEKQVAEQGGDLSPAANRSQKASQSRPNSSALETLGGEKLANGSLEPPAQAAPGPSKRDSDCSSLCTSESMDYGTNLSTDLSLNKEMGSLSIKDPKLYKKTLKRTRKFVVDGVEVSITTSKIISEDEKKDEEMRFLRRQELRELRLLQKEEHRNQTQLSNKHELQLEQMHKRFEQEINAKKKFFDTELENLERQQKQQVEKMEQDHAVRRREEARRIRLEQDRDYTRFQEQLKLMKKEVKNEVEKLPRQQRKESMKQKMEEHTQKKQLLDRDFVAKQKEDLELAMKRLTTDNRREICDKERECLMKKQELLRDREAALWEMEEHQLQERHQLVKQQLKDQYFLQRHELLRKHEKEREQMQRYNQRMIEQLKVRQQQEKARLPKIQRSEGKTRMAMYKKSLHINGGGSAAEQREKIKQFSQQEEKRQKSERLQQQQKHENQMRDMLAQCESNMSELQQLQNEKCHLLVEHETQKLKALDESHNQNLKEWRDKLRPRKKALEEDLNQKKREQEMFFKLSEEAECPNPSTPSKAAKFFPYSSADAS

TNIK (human) = TNIK (human) (UniProt Q9UKE5)
CSF1R (human) = CSF1R (human) (UniProt P07333)
CHUK (human) = CHUK (human) (UniProt O15111)
RPS6KA2 KD2 (human) = RPS6KA2 KD2 (human) (UniProt Q15349)
PIM3 (human) = PIM3 (human) (UniProt Q86V86)
SRMS (human) = SRMS (human) (UniProt Q9H3Y6)
ROS1 (human) = ROS1 (human) (UniProt P08922)
FER (human) = FER (human) (UniProt P16591)
AKT2 (human) = AKT2 (human) (UniProt P31751)
[3] = target: ABL1 (human), P00519 [M351T]
CDK3 (human) = CDK3 (human) (UniProt Q00526)
CDK3 (human), sequence (Q00526 whole entry, looked up): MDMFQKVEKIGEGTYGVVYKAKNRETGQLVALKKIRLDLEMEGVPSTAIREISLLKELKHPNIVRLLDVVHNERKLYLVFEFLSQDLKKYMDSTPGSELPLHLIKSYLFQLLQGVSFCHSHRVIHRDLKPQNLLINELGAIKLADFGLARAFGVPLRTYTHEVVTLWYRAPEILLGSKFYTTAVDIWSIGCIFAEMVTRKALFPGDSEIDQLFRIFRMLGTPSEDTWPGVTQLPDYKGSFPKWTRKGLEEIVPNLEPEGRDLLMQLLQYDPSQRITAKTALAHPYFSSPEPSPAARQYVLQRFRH

DYRK1A (human) = DYRK1A (human) (UniProt Q13627)

COc1cc2ncnc(Oc3cccc(NC(=O)Nc4cc(C(C)(C)C(F)(F)F)on4)c3)c2cc1OC
Kd (EPHA8 (human)): 0.014 µM
Kd (MAP4K5 (human)): 0.029 µM
Kd (FGFR3 (human)): 3.3 µM
Kd [1]: 0.26 µM
Kd (CHEK2 (human)): 8.7 µM
Kd (TAOK2 (human)): 1.6 µM
Kd (EPHB2 (human)): 0.04 µM
Kd [2]: 37 µM
Kd (MAPK10 (human)): 0.088 µM
Kd (DDR2 (human)): 0.0054 µM
Kd (MAP2K2 (human)): 8.3 µM
Kd (STK39 (human)): 37 µM
Kd (NTRK2 (human)): 1 µM
Kd (CDK19 (human)): 0.94 µM
Kd (MKNK1 (human)): 2.6 µM
Kd (MAP2K1 (human)): 7.1 µM
Kd (TIE1 (human)): 0.024 µM
Kd (TESK1 (human)): 38 µM
Kd (EIF2AK2 (human)): 34 µM
Kd (NEK5 (human)): 28 µM
Kd (FES (human)): 0.11 µM
Kd (CAMKK1 (human)): 16 µM
Kd (PRKD3 (human)): 6.3 µM
Kd (SRC (human)): 0.099 µM
Kd (PDGFRA (human)): 0.0054 µM
Kd (ROCK2 (human)): 37 µM
Kd (SIK1 (human)): 1.8 µM
Kd (IRAK3 (human)): 1.4 µM
Kd (STK10 (human)): 0.0017 µM
Kd (TNIK (human)): 0.066 µM
Kd (CSF1R (human)): 0.0086 µM
Kd (CHUK (human)): 0.17 µM
Kd (RPS6KA2 KD2 (human)): 33 µM
Kd (PIM3 (human)): 13 µM
Kd (SRMS (human)): 3 µM
Kd (ROS1 (human)): 2.5 µM
Kd (FER (human)): 0.2 µM
Kd (AKT2 (human)): 8.4 µM
Kd [3]: 0.0032 µM
Kd (CDK3 (human)): 26 µM
Kd (DYRK1A (human)): 35 µM
